Active and inactive are the calls of the source. The rule behind the calls is not given here.
Columns and labels:
Pseudomonas aeruginosa = experiment: Potentiation of novobiocin-induced antibacterial activity against wild type Pseudomonas aeruginosa PAO1 incubated for 18 hrs by CLSI protocol based assay; type: functional, organism-based
Acinetobacter baumannii [1] = experiment: Antibacterial activity against novobiocin-resistant Acinetobacter baumannii ATCC 17978 mutant generated from seven serial passages by checkerboard assay; type: functional
Acinetobacter baumannii [2] = experiment: Antibacterial activity against colistin-resistant Acinetobacter baumannii ATCC 17978 mutant generated from seven serial passages by checkerboard assay; type: functional
Acinetobacter baumannii [3] = experiment: Antibacterial activity against novobiocin and test compound-resistant Acinetobacter baumannii ATCC 17978 mutant generated from seven serial passages in presence of novobiocin by checkerboard assay; type: functional
Acinetobacter baumannii [4] = experiment: Antibacterial activity against wild type Acinetobacter baumannii ATCC 17978 by checkerboard assay; type: functional

| Compound | Activity (Pseudomonas aeruginosa) | MIC (Acinetobacter baumannii [1]) [µg/mL] | MIC (Acinetobacter baumannii [2]) [µg/mL] | MIC (Acinetobacter baumannii [3]) [µg/mL] | MIC (Acinetobacter baumannii [4]) [µg/mL] |
| --- | --- | --- | --- | --- | --- |
| CC(C)(C)OC(=O)NC[C@H]1O[C@H](O[C@H]2[C@H](OCCCCc3cn(CCCCO[C@@H]4[C@@H](O[C@H]5O[C@H](CO)[C@@H](O)[C@H](NC(=O)OC(C)(C)C)[C@H]5O)[C@H](NC(=O)OC(C)(C)C)C[C@H](NC(=O)OC(C)(C)C)[C@H]4O[C@H]4O[C@H](CNC(=O)OC(C)(C)C)[C@@H](O)C[C@H]4NC(=O)OC(C)(C)C)nn3)[C@@H](O[C@H]3O[C@H](CO)[C@@H](O)[C@H](NC(=O)OC(C)(C)C)[C@H]3O)[C@H](NC(=O)OC(C)(C)C)C[C@@H]2NC(=O)OC(C)(C)C)[C@H](NC(=O)OC(C)(C)C)C[C@@H]1O | inactive |  |  |  |  |
| [N-]=[N+]=NCCCCO[C@@H]1[C@@H](O[C@H]2O[C@H](CO)[C@@H](O)[C@H](N)[C@H]2O)[C@H](N)C[C@H](N)[C@H]1O[C@H]1O[C@H](CN)[C@@H](O)C[C@H]1N | inactive |  |  |  |  |
| CC(C)(O/N=C(\C(=O)N[C@@H]1C(=O)N2C(C(=O)[O-])=C(C[n+]3ccccc3)CS[C@H]12)c1csc(N)n1)C(=O)O [CEFTAZIDIME] |  | 32 | 1 | 16 | 16 |
| CN(C)c1ccc(O)c2c1C[C@H]1C[C@H]3[C@H](N(C)C)C(O)=C(C(N)=O)C(=O)[C@@]3(O)C(O)=C1C2=O [MINOCYCLINE] |  | 0.5 | < 0.031 | 0.125 | 0.125 |
| O=C(N[C@H](CO)[C@H](O)c1ccc([N+](=O)[O-])cc1)C(Cl)Cl [CHLORAMPHENICOL] |  | 32 | 8 | 64 | 64 |

Source: ChEMBL document CHEMBL4376820, “Homodimeric Tobramycin Adjuvant Repurposes Novobiocin as an Effective Antibacterial Agent against Gram-Negative Bacteria” (J Med Chem, 2019)
